The target in assay [1] is T1, H-2K^b (Mus musculus, UniProt P01901).
T1 construct: surface stabilization assay using the TAP1 deficient cell line RMA-S; endogenous in cells; host or cells: RMA-S
T1 sequence (P01901 22-369): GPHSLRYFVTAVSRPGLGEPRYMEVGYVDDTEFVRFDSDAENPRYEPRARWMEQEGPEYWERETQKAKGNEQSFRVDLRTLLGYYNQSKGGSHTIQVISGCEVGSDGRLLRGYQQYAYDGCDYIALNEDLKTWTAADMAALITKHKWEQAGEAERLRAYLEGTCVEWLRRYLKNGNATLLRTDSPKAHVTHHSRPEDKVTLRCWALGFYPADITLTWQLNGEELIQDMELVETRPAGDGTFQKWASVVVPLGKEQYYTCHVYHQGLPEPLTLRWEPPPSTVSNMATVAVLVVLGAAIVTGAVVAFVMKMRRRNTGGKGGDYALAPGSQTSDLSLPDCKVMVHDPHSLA
T1 sequence (P01887 21-119 partner): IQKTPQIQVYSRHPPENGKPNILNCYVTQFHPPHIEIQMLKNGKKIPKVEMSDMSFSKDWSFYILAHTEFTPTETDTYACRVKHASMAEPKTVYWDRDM
Kind of assay: MHC class I surface stabilization assay on RMA-S cells, H-2Kb. Type of assay: binding. The following applies: RMA-S cells pulsed with peptide overnight, flow cytometry. As for the experimental part:
10^6 RMA-S cells were incubated overnight at 37° C. with each of the five predicted at the concentrations indicated. Cells were stained with antibodies for H-2K^b (Y-3; ATCC-HB176) or H-2D^b (28-14-8S; ATCC-HB27) followed by a goat anti-mouse-FITC second step and MHC class I surface expression was analyzed by flow cytometry. Specific MFI is the mean fluorescent intensity of the sample-mean fluorescent intensity of goat anti-mouse-FITC second step alone. Error bars represent the standard deviation of triplicate measurements.
(§1) The binding affinity of the five predicted peptides was tested. In a surface stabilization assay using the TAP1 deficient cell line RMA-S. RMA-S cells were pulsed with peptide, at the indicated concentrations, and incubated overnight. Cells were stained with antibodies for H-2K^b (Y-3; ATCC-HB176) or H-2D^b (28-14-8S; ATCC-HB27) followed by a fluorescent-labeled secondary antibody and MHC class I surface expression was analyzed by flow cytometry.
Background: Flow cytometry measures light scatter and fluorescence of single cells or particles in a stream.

The subject of the next assay is AP-1 signaling. Kind of assay: AP-1-dependent secreted alkaline phosphatase reporter in RAW cells. Type of assay: cell-based, murine. As to conditions: transient transfection, IFNγ or LPS stimulation. Here is the method: (§2) Function of the mutant and wt SHP-1 constructs was tested in RAW cells by transient transfection of SHP-1 vectors along with a reporter construct expressing a secreted alkaline phosphatase driven by either an NFκB or AP-1 dependent promoter. NFκB and AP-1 are major transcription factors stimulated by toll-like receptor (TLR) and cytokine signaling in immune system cells, and represent likely pathways of SHP-1 inhibition on cellular activation. Cells were transfected with the appropriate construct, reporter and then stimulated with interferon-γ (IFNγ) or bacterial lipopolysaccharide (LPS) as ligands for cytokine and TLR receptors respectively.

A further assay has as its system NFκB signaling. Kind of assay: NFκB-dependent secreted alkaline phosphatase reporter in RAW cells. The class given is cell-based, murine. The following applies: transient transfection, IFNγ or LPS stimulation. As for the experimental part:
as §2

For another assay, the target named is T2, H-2D^b (mouse, UniProt P01887 21-119; P01899 25-309).
T2 construct: whole, on cells;extracellular; MHC class I on RMA-S cells, detected with antibody 28-14-8S (ATCC-HB27) in a surface stabilization assay; also called MHC class 1 molecule H-2D^b
T2 sequence (MHC heavy, looked up): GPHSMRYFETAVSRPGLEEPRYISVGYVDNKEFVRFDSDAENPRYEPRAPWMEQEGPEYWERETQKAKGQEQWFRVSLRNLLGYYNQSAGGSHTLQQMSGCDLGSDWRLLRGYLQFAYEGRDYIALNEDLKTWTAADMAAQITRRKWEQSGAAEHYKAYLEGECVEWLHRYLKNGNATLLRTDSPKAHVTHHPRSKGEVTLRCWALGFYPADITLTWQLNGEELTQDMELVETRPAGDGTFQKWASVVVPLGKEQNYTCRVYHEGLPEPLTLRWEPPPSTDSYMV
T2 sequence (b2m, looked up): T1 sequence (P01887 21-119 partner)
Kind of assay: RMA-S surface stabilization assay, flow cytometry of MHC class I surface expression. As for the experimental part: (§3) 10⁶ RMA-S cells were incubated overnight at 37° C. with each of the five predicted at the concentrations indicated. Cells were stained with antibodies for H-2K^b (Y-3; ATCC-HB176) or H-2D^b (28-14-8S; ATCC-HB27) followed by a goat anti-mouse-FITC second step and MHC class I surface expression was analyzed by flow cytometry. Specific MFI is the mean fluorescent intensity of the sample-mean fluorescent intensity of goat anti-mouse-FITC second step alone. Error bars represent the standard deviation of triplicate measurements. This is representative of 3 separate studies.
as §1, with “cytometry. […] STEAP₈₄₋₉₁ and STEAP₁₈₆₋₁₉₂ bound with an affinity near that of OVA₂₅₈₋₂₆₅, a well characterized strong binding H-2K^b epitope from chicken ovalbumin. […]” for “cytometry.”

In assay [2] the target is T3, H-2K^b (mouse, UniProt P01887 21-119; P01901 22-305, limits assumed).
T3 construct: whole, on cells;extracellular; MHC class I on RMA-S cells, detected with antibody Y-3 (ATCC-HB176) in a surface stabilization assay; also called MHC class 1 molecule H-2K^b
T3 sequence (MHC heavy, looked up): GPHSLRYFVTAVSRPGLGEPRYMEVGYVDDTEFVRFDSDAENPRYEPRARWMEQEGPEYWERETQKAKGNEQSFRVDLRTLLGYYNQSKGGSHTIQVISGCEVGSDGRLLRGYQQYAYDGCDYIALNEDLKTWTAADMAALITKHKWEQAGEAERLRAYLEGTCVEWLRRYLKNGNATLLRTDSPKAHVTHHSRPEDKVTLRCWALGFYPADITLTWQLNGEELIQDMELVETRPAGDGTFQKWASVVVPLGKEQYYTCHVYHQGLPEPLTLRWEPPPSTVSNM
T3 sequence (b2m, looked up): T1 sequence (P01887 21-119 partner)
Description: RMA-S surface stabilization assay, flow cytometry with antibody Y-3; reference peptide. Here is the method:
In Table 1, OVA Kb binding peptide […] was used as control for a known good binder.
as §3
as §1, with “cytometry. […] STEAP₈₄₋₉₁ and STEAP₁₈₆₋₁₉₂ bound with an affinity near that of OVA₂₅₈₋₂₆₅, a well characterized strong binding H-2K^b epitope from chicken ovalbumin. […]” for “cytometry.”

For LTFLYTLL [STEAP84-91], the “relative binding affinity to H-2Kb (MHC class I surface expression)” value at H-2K^b [1] is listed as “bound with an affinity near that of OVA258-265”. For “dn-SHP-1: phosphatase dead dominant negative SHP-1 C453S mutant construct, HA-tagged (SEQ ID NO:8)”, the AP-1 signaling result in the assay with AP-1 signaling is “enhanced both NFκB and AP-1 signaling”. Further, in the assay on NFκB signaling, the NFκB signaling result is “enhanced both NFκB and AP-1 signaling”. As to RSYRYKLL [STEAP186-192], the “relative binding affinity to H-2Kb (MHC class I surface expression)” value at H-2K^b [1] is listed as “bound with an affinity near that of OVA258-265”. With LLLGTVHAL (also called LLLGTVHAL) [STEAP262-270], the binding result with H-2D^b is given as “no binding”.

As for SIINFEKL (also called OVA peptide) [OVA258-265], in the assay with H-2K^b [2], the binding result is given as “binds”.

These data come from patent publication US20090123501A1, “INHIBITION OF THE SH2-DOMAIN CONTAINING PROTEIN TYR-PHOSPHATASE, SHP-1, TO ENHANCE VACCINES” (Baylor College of Medicine, priority 2007, published 2009).
